Test results from ChEMBL document CHEMBL5678818, “Discovery of potent SOS1 inhibitors that block RAS activation via disruption of the RAS-SOS1 interaction” (Proc Natl Acad Sci U S A, 2019).

Columns and labels:
[1] = molecular target: T1, Mitogen-activated protein kinase 13 (Homo sapiens) (UniProt O15264); assay: Inhibition of p38-delta (unknown origin) assessed as residual activity at 100 nM by KINOMEscan analysis relative to control
T1 sequence (whole entry): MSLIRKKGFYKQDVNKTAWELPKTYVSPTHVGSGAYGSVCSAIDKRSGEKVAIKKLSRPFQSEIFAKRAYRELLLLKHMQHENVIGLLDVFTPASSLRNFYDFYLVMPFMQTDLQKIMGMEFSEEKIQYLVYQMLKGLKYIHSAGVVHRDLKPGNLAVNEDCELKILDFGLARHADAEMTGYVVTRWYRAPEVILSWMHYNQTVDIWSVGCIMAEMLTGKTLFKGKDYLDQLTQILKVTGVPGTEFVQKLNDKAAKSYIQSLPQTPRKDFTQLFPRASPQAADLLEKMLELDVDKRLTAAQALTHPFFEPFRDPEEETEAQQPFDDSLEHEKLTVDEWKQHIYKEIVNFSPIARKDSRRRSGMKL

[2] = molecular target: T2, Non-receptor tyrosine-protein kinase TNK1 (Homo sapiens) (UniProt Q13470); assay: Inhibition of TNK1 (unknown origin) assessed as residual activity at 100 nM by KINOMEscan analysis relative to control
T2 sequence (whole entry): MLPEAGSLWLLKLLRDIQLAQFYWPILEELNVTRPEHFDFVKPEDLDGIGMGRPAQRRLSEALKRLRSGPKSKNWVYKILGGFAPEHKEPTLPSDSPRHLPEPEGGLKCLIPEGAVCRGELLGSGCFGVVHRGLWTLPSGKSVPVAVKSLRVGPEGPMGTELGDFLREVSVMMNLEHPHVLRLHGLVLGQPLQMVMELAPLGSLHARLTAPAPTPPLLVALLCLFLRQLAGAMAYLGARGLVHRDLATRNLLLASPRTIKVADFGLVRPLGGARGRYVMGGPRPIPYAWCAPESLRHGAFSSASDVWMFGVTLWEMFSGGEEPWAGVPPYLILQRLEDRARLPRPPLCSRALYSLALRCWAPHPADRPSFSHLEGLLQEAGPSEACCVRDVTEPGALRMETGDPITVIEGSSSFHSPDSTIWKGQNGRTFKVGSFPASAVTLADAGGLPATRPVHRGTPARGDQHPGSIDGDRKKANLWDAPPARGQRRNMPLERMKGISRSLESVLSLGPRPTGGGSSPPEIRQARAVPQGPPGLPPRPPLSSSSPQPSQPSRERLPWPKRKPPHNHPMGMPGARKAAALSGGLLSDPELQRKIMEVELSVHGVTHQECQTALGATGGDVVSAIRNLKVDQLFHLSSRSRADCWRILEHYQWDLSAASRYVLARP

[3] = molecular target: Phosphatidylinositol 4,5-bisphosphate 3-kinase catalytic subunit beta isoform (Homo sapiens) (UniProt P42338); assay: Inhibition of PIK3CB (unknown origin) assessed as residual activity at 100 nM by KINOMEscan analysis relative to control
[4] = test system: Phosphatidylinositol 4,5-bisphosphate 3-kinase catalytic subunit alpha isoform (Homo sapiens), P42336 [E545A]; assay: Inhibition of PIK3CA E545A mutant (unknown origin) assessed as residual activity at 100 nM by KINOMEscan analysis relative to control
[5] = test system: Phosphatidylinositol 4,5-bisphosphate 3-kinase catalytic subunit alpha isoform (Homo sapiens), P42336 [Q546K]; assay: Inhibition of PIK3CA Q546K mutant (unknown origin) assessed as residual activity at 100 nM by KINOMEscan analysis relative to control
[6] = molecular target: T3, Serine/threonine-protein kinase 17A (Homo sapiens) (UniProt Q9UEE5); assay: Inhibition of DRAK1 (unknown origin) assessed as residual activity at 100 nM by KINOMEscan analysis relative to control
T3 sequence (whole entry): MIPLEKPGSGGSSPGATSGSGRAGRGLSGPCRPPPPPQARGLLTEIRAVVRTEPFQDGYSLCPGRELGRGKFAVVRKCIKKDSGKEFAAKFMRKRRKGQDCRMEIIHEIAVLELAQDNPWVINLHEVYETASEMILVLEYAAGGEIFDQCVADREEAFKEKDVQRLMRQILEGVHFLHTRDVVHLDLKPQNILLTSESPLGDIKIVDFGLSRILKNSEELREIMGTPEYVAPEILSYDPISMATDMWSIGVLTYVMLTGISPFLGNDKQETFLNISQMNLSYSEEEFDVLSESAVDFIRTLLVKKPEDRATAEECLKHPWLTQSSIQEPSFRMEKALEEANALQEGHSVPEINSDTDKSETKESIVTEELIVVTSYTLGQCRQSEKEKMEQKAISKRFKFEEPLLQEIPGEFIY

[7] = molecular target: Mast/stem cell growth factor receptor Kit (Homo sapiens) (UniProt P10721); assay: Inhibition of autoinhibited KIT (unknown origin) assessed as residual activity at 100 nM by KINOMEscan analysis relative to control
Chain of Mast/stem cell growth factor receptor Kit (Homo sapiens) (P10721 whole entry): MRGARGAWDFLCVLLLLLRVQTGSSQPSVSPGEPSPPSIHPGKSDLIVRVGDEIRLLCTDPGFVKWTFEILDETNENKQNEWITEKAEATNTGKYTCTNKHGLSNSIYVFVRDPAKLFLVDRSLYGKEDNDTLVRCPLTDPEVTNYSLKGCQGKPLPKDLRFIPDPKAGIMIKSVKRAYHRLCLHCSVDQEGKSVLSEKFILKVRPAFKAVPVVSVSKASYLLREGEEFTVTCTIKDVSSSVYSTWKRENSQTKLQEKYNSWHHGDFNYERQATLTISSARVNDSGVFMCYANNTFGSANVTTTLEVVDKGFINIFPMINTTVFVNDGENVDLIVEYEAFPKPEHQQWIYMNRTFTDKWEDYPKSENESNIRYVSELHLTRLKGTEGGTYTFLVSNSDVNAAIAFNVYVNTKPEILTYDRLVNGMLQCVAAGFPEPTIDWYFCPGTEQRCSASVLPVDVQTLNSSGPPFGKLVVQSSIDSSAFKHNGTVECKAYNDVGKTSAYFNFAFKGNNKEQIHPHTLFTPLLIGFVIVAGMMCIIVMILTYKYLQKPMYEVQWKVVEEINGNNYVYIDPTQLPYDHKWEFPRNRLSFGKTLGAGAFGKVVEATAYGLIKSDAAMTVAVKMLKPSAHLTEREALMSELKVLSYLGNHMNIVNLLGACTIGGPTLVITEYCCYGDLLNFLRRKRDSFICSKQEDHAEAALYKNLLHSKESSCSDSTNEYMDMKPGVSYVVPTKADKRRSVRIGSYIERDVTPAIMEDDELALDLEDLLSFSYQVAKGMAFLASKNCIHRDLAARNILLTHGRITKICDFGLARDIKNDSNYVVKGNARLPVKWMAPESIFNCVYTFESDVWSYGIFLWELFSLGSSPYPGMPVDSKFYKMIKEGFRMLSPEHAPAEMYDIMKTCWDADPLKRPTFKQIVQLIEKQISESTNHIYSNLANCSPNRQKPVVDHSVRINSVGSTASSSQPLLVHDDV

Chain of Phosphatidylinositol 4,5-bisphosphate 3-kinase catalytic subunit beta isoform (Homo sapiens) (P42338 whole entry, looked up, canonical isoform): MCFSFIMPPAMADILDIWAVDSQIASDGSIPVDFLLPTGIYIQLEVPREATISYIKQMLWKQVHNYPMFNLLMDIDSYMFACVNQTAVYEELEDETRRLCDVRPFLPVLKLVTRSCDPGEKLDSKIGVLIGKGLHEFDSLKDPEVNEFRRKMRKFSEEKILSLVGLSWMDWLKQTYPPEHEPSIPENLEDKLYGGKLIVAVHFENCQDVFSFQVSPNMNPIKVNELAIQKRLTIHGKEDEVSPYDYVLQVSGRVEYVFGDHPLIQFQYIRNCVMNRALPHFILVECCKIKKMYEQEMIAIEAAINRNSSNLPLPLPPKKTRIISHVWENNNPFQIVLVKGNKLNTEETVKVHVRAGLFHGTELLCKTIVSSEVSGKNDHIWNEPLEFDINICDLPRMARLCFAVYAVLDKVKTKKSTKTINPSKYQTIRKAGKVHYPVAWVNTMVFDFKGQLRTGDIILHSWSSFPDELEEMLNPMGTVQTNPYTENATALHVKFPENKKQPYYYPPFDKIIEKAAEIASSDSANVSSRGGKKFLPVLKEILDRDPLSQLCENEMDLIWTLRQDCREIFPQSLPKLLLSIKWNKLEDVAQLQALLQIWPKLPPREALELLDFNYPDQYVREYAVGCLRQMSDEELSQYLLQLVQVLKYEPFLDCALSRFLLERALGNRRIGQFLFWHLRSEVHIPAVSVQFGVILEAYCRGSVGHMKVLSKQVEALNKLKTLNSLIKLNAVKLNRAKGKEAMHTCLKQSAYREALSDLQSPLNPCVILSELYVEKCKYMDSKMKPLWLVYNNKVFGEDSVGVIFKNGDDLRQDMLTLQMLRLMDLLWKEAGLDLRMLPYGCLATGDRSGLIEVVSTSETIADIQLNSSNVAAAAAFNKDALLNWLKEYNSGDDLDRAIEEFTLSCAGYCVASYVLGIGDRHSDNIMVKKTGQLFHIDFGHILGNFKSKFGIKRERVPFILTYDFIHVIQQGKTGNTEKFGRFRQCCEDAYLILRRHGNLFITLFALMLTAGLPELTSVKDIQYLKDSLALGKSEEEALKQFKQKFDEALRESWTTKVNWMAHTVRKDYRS
Chain of Phosphatidylinositol 4,5-bisphosphate 3-kinase catalytic subunit alpha isoform (Homo sapiens), P42336 [E545A] (P42336 whole entry E545A, canonical isoform): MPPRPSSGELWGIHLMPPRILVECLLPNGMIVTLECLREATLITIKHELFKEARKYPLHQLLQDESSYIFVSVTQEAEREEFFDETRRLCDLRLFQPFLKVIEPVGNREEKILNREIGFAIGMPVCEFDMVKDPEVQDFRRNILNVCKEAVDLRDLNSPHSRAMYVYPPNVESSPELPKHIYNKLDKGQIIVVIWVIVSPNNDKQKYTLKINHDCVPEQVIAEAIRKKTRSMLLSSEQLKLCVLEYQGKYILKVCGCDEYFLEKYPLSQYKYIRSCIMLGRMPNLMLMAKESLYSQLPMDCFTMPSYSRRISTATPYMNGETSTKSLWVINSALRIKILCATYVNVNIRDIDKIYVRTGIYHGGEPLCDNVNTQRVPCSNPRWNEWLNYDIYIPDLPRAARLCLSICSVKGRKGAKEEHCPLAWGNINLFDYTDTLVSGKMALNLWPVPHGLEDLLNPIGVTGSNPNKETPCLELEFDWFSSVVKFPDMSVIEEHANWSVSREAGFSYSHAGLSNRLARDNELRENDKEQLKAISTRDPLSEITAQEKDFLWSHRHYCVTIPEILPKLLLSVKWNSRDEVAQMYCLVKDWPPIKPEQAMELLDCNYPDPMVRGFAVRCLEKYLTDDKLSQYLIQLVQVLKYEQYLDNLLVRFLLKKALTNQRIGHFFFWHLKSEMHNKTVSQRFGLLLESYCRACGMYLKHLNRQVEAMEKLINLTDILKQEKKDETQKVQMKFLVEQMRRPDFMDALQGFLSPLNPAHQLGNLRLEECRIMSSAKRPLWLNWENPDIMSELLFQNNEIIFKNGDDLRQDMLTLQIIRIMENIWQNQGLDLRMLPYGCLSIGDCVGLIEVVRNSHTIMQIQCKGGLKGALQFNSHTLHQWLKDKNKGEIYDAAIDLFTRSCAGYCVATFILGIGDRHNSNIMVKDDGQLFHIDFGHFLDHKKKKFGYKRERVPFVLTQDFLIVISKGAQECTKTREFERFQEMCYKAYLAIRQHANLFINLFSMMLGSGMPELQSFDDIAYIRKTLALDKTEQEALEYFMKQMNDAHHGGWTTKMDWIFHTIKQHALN
Chain of Phosphatidylinositol 4,5-bisphosphate 3-kinase catalytic subunit alpha isoform (Homo sapiens), P42336 [Q546K] (P42336 whole entry Q546K, canonical isoform): as the sequence (P42336 whole entry E545A, canonical isoform) above, with A545E, Q546K counted along it

Question: Which results are given for COc1cc2ncnc(N[C@H](C)c3cccc4ccccc34)c2cc1OC?
Answer: Activity [1]: 100%; Activity [2]: 86%; Activity [3]: 72%; Activity [4]: 93%; Activity [5]: 70%; Activity [6]: 100%; Activity [7]: 91%
